Values of other authors, collected in US20250332118A1, “NOVEL ORAL CARE FORMULATIONS FOR TREATMENT OF XEROSTOMIA” (priority 2022, published 2025).

Conditions: @ 79° F.

- Water solubility: 34 % w/v
SMILES: CS(C)(=O)=O [MSM, Methylsulfonylmethane]
